Experimental data taken from patent publication US20160083357A1, “NOVEL TETRAZOLONE DERIVATIVES” (Hoffmann-La Roche Inc., priority 2013, published 2016).
pEC50: −log10 of the molar value.

Legend:
human CB2 receptors = target: T1, human CB2 receptors (Homo sapiens, UniProt P34972); test: cAMP assay, human CB2; type: cell-based; conditions: functional cAMP assay, CHO cells expressing human CB2; read-out: Ec50: CB2 - hu cAMP
T1 construct: expressed in transfected cells; host or cells: CHO cells
Summary of the method: (§1)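 CHO cells expressing human CB1 or CB2, preincubated in Krebs Ringer bicarbonate with 1 mM IBMX, then compound for 30 min at 30° C. cAMP quantified by time-resolved FRET (cAMP-Nano-TRF) against a cAMP standard curve; EC50 values derived.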

human CB1 receptors = target: T2, human CB1 receptors (Homo sapiens, UniProt P21554); test: cAMP assay, human CB1; type: cell-based; conditions: functional cAMP assay, CHO cells expressing human CB1; read-out: Ec50: CB1 - hu cAMP
T2 construct: expressed in transfected cells; host or cells: CHO cells
Summary of the method: as §1

T2 sequence (P21554 whole entry): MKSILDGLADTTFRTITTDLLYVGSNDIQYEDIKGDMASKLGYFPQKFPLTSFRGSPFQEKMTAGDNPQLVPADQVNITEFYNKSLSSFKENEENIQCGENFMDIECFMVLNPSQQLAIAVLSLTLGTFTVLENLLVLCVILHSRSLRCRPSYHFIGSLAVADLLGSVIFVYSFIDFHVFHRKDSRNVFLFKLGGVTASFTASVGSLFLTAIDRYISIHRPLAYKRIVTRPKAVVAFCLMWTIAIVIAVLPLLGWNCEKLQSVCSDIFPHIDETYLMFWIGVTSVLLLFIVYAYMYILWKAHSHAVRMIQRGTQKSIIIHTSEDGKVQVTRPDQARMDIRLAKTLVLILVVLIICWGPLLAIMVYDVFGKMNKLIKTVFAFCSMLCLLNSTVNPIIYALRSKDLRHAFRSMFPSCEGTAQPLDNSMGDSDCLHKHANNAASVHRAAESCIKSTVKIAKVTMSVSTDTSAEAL
T1 sequence (P34972 whole entry): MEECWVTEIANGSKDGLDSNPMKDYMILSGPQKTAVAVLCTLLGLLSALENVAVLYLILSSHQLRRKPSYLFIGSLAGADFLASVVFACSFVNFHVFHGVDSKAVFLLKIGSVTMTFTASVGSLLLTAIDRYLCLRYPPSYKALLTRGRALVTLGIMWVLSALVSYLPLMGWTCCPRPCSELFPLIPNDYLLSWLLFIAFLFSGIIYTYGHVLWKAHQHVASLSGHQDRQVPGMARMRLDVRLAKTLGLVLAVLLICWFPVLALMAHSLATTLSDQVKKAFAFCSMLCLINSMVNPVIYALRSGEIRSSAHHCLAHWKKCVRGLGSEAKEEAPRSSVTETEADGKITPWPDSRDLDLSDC

pEC50 (human CB2 receptors)	pEC50 (human CB1 receptors)	SMILES
7.77	< 5.00	O=C(CN1CCN(C(=O)n2nnn(-c3cccc(Cl)c3)c2=O)CC1)N1CCOCC1 [Example 89, 1-(3-Chloro-phenyl)-4-[4-(2-morpholin-4-yl-2-oxo-ethyl)-piperazine-1-carbonyl]-1,4-dihydro-tetrazol-5-one]
8.89	< 5.00	COCC1CCN(C(=O)n2nnn(-c3cccc(F)c3)c2=O)CC1 [Example 60, 1-(3-Fluoro-phenyl)-4-(4-methoxymethyl-piperidine-1-carbonyl)-1,4-dihydro-tetrazol-5-one]
5.70	< 5.00	O=C(Cn1nnn(-c2cccc(Cl)c2)c1=O)N1CCOCC1 [Example 115, 1-(3-Chloro-phenyl)-4-(2-morpholin-4-yl-2-oxo-ethyl)-1,4-dihydro-tetrazol-5-one]
6.01	< 5.00	C[C@@H]1CN(C(=O)n2nnn(-c3cccc(F)c3)c2=O)C[C@H](C)O1 [Example 59, 1-((2S,6R)-2,6-Dimethyl-morpholine-4-carbonyl)-4-(3-fluoro-phenyl)-1,4-dihydro-tetrazol-5-one]
7.90	< 5.00	CCNC(=O)CN1CCN(C(=O)n2nnn(-c3cccc(Cl)c3)c2=O)CC1 [Example 104, 2-{4-[4-(3-Chloro-phenyl)-5-oxo-4,5-dihydro-tetrazole-1-carbonyl]-piperazin-1-yl}-N-ethyl-acetamide]
7.86	< 5.00	CCCCNC(=O)CN1CCN(C(=O)n2nnn(-c3cccc(OC(F)(F)F)c3)c2=O)CC1 [Example 108, N-Butyl-2-{4-[5-oxo-4-(3-trifluoromethoxy-phenyl)-4,5-dihydro-tetrazole-1-carbonyl]-piperazin-1-yl}-acetamide]
6.79	< 5.00	CN(C(=O)n1nnn(C2CC2)c1=O)c1cccnc1 [Example 35, 4-Cyclopropyl-5-oxo-4,5-dihydro-tetrazole-1-carboxylic acid methyl-pyridin-3-yl-amide]
8.15	< 5.00	O=C(CN1CCN(C(=O)n2nnn(-c3cccc(F)c3)c2=O)CC1)N1CCCC1 [Example 27, 1-(3-Fluoro-phenyl)-4-[4-(2-oxo-2-pyrrolidin-1-yl-ethyl)-piperazine-1-carbonyl]-1,4-dihydro-tetrazol-5-one]
7.80	< 5.00	NC(=O)C1CCCN(C(=O)n2nnn(-c3cccc(F)c3)c2=O)C1 (centres unmarked) [Example 3, 1-[4-(3-Fluoro-phenyl)-5-oxo-4,5-dihydro-tetrazole-1-carbonyl]-piperidine-3-carboxylic acid amide]
9.22	< 5.00	COc1ccc(CCN(C)C(=O)n2nnn(-c3cccc(F)c3)c2=O)cc1OC [Example 1, 4-(3-Fluoro-phenyl)-5-oxo-4,5-dihydro-tetrazole-1-carboxylic acid [2-(3,4-dimethoxy-phenyl)-ethyl]-methyl-amide]
6.05	< 5.00	Cn1c(Cn2nnn(-c3cccc(F)c3)c2=O)nnc1S(C)(=O)=O [Example 17, 1-(3-Fluoro-phenyl)-4-(5-methanesulfonyl-4-methyl-4H-[1,2,4]triazol-3-ylmethyl)-1,4-dihydro-tetrazol-5-one]
7.94	< 5.00	CN(CCC#N)C(=O)n1nnn(-c2cccc(F)c2)c1=O [Example 2, 4-(3-Fluoro-phenyl)-5-oxo-4,5-dihydro-tetrazole-1-carboxylic acid (2-cyano-ethyl)-methyl-amide]
9.10	< 5.00	CN(CCc1ccccc1)C(=O)n1nnn(-c2cccc(F)c2)c1=O [Example 5, 4-(3-Fluoro-phenyl)-5-oxo-4,5-dihydro-tetrazole-1-carboxylic acid methyl-phenethyl-amide]
6.82	< 5.00	CN(C(=O)n1nnn(-c2cccc(F)c2)c1=O)c1ccccn1 [Example 32, 4-(3-Fluoro-phenyl)-5-oxo-4,5-dihydro-tetrazole-1-carboxylic acid methyl-pyridin-2-yl-amide]
6.89	< 5.00	CC1CN(C(=O)n2nnn(-c3cccc(Cl)c3)c2=O)CC(C)O1 (centres unmarked) [Example 137, 1-(3-chlorophenyl)-4-(2,6-dimethylmorpholine-4-carbonyl)tetrazol-5-one]
7.40	< 5.00	CC(=O)N[C@H]1CCN(C(=O)n2nnn(-c3cccc(Cl)c3)c2=O)C1 [Example 68, N—{(S)-1-[4-(3-Chloro-phenyl)-5-oxo-4,5-dihydro-tetrazole-1-carbonyl]-pyrrolidin-3-yl}-acetamide]
8.39	< 5.00	O=C(N1CCCC1Cc1ccccc1)n1nnn(-c2cccc(F)c2)c1=O (centres unmarked) [Example 9, 1-(2-Benzyl-pyrrolidine-1-carbonyl)-4-(3-fluoro-phenyl)-1,4-dihydro-tetrazol-5-one]
7.59	< 5.00	CC(=O)N[C@@H]1CCN(C(=O)n2nnn(-c3cccc(F)c3)c2=O)C1 [Example 43, N—{(R)-1-[4-(3-Fluoro-phenyl)-5-oxo-4,5-dihydro-tetrazole-1-carbonyl]-pyrrolidin-3-yl}-acetamide]
8.15	< 5.00	O=C(N1CCOCC1)n1nnn(-c2ccc(F)c(F)c2)c1=O [Example 125, 1-(3,4-difluorophenyl)-4-(morpholine-4-carbonyl)tetrazol-5-one]
